Laboratory results: patent US9150579B2, “Selective PI3K delta inhibitors” (Rhizen Pharmaceuticals SA, priority 2012, dated 2015)
Where two headings read alike, the source gives them in different places.

Tests used:
[1] = Metabolic stability in mouse liver microsomes; format: in vitro ADME; details: 1 μM test item, 60 minutes, NADPH
Procedure: (§1) Metabolic stability studies were conducted using mouse, rat, and human liver microsomes. The protocol for the studies with mouse, rat, and human liver microsomes (all from BD Gentest, USA) is provided below. In brief, 0.4 mg protein was preincubated with 2 mM NADPH (cofactor) in phosphate buffer (pH˜7.4) for 15 min at 37° C. and then added with 1 μM test item and incubated further for 60 minutes in triplicate. The reaction mixture was terminated with methanol containing an internal standard and centrifuged further to analyze the test item remaining in the supernatant by LC-MS/MS. The percent parent compound remaining was calculated in comparison with similar samples terminated at 0 minutes.

[2] = Metabolic stability in rat liver microsomes; format: in vitro ADME; details: 1 μM test item, 60 minutes, NADPH
Procedure: as §1

[3] = Metabolic stability in human liver microsomes; format: in vitro ADME; details: 1 μM test item, 60 minutes, NADPH
Procedure: as §1

[4] = target: PI3K delta (Homo sapiens (Human), UniProt O00329); assay: Assay 1: Fluorescent (HTRF) determination of PI3K enzyme activity, delta; format: biochemical
PI3K delta, sequence (O00329 whole entry, canonical isoform): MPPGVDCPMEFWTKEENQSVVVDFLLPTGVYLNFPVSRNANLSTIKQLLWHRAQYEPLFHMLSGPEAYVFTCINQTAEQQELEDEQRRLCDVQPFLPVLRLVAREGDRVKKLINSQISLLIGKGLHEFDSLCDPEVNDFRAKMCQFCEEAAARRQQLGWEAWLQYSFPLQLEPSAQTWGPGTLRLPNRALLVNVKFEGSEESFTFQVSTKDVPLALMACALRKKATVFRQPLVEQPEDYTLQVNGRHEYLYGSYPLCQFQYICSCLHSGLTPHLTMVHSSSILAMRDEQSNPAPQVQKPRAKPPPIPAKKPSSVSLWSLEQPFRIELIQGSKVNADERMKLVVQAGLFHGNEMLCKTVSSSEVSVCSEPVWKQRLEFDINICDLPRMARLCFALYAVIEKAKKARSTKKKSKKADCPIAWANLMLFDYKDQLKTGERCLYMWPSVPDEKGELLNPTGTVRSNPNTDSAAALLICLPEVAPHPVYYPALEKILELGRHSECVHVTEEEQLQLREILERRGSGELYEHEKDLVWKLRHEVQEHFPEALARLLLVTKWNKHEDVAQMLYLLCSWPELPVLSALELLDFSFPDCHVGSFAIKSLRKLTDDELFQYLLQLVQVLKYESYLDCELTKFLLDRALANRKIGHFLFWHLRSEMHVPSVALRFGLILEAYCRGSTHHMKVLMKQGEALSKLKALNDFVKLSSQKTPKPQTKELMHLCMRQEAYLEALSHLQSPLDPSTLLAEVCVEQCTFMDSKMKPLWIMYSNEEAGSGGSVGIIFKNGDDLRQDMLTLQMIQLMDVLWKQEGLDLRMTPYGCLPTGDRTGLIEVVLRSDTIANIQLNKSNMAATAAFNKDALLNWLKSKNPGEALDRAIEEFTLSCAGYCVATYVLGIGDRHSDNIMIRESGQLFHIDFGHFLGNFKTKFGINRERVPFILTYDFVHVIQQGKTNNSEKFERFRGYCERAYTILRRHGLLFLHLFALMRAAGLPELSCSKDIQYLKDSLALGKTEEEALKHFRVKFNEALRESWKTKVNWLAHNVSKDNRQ
PI3K delta, sequence (P27986 whole entry partner, canonical isoform): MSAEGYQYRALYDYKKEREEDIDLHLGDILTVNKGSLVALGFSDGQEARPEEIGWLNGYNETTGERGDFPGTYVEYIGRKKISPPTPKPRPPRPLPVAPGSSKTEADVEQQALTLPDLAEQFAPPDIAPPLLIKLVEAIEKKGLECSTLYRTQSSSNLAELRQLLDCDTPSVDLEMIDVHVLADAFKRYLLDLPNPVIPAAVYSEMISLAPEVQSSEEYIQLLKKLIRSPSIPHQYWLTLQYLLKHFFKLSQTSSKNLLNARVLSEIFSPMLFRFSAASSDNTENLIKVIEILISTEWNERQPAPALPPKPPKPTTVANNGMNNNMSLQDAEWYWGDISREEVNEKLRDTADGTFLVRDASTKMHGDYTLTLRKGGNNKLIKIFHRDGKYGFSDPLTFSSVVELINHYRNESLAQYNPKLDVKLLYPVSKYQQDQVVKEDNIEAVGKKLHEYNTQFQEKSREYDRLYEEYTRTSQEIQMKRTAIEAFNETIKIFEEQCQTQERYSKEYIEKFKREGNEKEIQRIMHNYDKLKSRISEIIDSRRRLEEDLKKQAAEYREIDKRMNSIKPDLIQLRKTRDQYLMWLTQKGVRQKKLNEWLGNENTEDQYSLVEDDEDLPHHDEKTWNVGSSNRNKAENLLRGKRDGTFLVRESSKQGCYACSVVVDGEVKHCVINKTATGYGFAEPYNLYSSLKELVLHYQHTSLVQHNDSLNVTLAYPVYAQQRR
Procedure: (§2) The homogenous time resolved fluorescence (HTRF) assay allows detection of 3,4,5-triphosphate (PIP3) formed as a result of phosphorylation of phosphotidylinositol 4,5-biphosphate (PIP2) by PI3K isoforms such as α, β, γ or δ.
(§3) PI3K isoform activity for α, β, γ or δ was determined using a PI3K human HTRF™ Assay Kit (Millipore, Billerica, Mass.) with modifications. All incubations were carried out at room temperature. […] After the initial incubation, 5 μl/well of 400 μM ATP was added and incubated for an additional 30 minutes. Reaction was terminated by adding 5 μl/well stop solution (Millipore, Billerica, Mass.). Five microliters of detection mix (Millipore, Billerica, Mass.) were then added to each well and was incubated for 6-18 h in the dark. HRTF ratio was measured on a microplate reader (BMG Labtech., Germany) at an excitation wavelength of 337 nm and emission wavelengths of 665 and 620 nm with an integration time of 400 μsec.

[5] = target: PI3K α (Homo sapiens (Human), UniProt P42336); assay: Assay 1: Fluorescent (HTRF) determination of PI3K enzyme activity, alpha; format: biochemical
PI3K α, sequence (P42336 whole entry): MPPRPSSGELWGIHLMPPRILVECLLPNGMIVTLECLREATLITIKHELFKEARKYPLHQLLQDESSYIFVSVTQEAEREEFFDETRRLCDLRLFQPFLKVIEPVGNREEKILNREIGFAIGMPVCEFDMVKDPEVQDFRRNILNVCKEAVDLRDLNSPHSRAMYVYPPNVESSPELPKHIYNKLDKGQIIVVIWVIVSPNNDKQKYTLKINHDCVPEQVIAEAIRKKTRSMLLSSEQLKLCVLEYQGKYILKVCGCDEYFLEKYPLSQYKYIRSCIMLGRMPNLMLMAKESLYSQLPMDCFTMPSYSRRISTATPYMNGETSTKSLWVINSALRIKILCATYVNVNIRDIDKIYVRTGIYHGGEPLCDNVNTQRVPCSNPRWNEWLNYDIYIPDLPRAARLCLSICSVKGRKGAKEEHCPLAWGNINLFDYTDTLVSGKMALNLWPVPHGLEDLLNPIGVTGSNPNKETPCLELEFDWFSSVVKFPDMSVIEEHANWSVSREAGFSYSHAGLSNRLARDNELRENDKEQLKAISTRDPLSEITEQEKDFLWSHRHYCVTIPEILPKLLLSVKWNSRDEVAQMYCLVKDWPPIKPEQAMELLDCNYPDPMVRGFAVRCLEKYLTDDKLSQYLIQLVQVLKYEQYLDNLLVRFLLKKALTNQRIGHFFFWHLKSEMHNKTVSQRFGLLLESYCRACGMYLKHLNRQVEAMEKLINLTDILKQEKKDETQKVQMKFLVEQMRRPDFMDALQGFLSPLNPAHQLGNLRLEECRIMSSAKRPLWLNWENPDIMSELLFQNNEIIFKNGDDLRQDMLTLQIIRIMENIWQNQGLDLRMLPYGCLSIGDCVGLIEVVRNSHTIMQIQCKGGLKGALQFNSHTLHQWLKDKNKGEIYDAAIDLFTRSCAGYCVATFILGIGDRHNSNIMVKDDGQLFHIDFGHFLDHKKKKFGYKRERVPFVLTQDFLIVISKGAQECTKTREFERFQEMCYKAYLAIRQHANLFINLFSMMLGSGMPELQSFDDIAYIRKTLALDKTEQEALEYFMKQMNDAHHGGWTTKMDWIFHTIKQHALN
PI3K α, sequence (P27986 whole entry partner): as the sequence (P27986 whole entry partner, canonical isoform) above
Procedure: as §2
as §3, with “dark.” for “dark. HRTF ratio was measured on a microplate reader (BMG Labtech., Germany) at an excitation wavelength of 337 nm and emission wavelengths of 665 and 620 nm with an integration time of 400 μsec.”

[6] = target: PI3K β (Homo sapiens (Human), UniProt P42338); assay: Assay 1: Fluorescent (HTRF) determination of PI3K enzyme activity, beta; format: biochemical
PI3K β, sequence (P42338 whole entry): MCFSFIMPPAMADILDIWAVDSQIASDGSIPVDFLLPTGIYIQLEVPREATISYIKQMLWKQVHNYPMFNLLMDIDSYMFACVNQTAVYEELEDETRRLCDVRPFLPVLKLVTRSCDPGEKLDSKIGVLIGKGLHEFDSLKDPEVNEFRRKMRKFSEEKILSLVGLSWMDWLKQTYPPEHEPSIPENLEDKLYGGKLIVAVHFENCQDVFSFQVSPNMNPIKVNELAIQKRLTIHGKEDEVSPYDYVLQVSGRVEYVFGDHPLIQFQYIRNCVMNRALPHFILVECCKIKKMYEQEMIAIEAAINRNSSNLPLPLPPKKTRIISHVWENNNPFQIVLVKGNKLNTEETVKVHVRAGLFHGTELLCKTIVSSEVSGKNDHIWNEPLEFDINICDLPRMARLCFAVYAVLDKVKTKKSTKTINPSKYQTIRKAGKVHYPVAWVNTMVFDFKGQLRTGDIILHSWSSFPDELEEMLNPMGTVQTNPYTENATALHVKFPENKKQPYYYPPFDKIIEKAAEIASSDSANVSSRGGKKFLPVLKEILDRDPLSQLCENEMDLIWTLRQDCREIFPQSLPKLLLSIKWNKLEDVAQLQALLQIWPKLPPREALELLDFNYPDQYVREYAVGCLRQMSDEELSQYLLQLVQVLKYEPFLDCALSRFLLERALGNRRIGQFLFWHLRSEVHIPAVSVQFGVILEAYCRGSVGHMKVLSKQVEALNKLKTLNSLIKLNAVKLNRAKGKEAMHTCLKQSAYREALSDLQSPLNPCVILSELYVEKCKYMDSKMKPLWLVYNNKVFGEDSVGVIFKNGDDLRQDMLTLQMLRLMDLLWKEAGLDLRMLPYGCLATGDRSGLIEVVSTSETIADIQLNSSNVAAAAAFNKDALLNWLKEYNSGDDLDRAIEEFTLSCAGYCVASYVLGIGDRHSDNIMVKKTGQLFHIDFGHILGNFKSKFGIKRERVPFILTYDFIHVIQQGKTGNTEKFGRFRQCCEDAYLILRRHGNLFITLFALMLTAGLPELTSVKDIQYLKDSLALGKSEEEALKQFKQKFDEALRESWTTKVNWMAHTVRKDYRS
PI3K β, sequence (P27986 whole entry partner): as the sequence (P27986 whole entry partner, canonical isoform) above
Procedure: as §2
as §3, with “dark.” for “dark. HRTF ratio was measured on a microplate reader (BMG Labtech., Germany) at an excitation wavelength of 337 nm and emission wavelengths of 665 and 620 nm with an integration time of 400 μsec.”

[7] = target: PI3K γ (Homo sapiens (Human), UniProt P48736); assay: Assay 1: Fluorescent (HTRF) determination of PI3K enzyme activity, gamma; format: biochemical
PI3K γ, sequence (P48736 whole entry): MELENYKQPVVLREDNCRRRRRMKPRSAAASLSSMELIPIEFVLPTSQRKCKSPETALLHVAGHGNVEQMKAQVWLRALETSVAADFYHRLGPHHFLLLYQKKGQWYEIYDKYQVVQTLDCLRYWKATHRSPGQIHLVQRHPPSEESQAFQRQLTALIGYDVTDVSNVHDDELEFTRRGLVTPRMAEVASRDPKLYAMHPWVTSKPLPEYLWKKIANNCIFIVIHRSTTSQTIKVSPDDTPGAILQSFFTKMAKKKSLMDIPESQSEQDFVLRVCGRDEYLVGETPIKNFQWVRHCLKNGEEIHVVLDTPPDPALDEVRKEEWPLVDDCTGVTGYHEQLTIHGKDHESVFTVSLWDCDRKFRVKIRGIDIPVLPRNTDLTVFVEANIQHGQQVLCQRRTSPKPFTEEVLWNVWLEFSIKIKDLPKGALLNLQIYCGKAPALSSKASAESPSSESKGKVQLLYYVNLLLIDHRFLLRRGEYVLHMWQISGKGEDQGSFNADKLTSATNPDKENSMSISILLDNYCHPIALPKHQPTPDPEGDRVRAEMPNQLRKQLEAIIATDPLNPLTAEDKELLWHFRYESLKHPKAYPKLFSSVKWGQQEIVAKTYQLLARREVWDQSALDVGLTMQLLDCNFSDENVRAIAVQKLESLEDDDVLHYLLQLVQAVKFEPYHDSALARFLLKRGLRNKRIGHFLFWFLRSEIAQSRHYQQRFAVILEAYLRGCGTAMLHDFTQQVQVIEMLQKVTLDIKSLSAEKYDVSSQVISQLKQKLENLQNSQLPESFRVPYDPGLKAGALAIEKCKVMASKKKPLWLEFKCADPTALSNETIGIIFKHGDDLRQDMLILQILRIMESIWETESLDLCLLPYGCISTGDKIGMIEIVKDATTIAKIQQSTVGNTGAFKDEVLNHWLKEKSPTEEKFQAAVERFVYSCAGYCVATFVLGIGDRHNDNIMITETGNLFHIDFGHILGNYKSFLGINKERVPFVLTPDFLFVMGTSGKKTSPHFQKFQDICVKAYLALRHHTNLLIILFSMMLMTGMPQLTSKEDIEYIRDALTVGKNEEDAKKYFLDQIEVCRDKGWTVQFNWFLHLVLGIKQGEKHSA
Procedure: as §2
as §3, with “dark.” for “dark. HRTF ratio was measured on a microplate reader (BMG Labtech., Germany) at an excitation wavelength of 337 nm and emission wavelengths of 665 and 620 nm with an integration time of 400 μsec.”

[8] = Oral pharmacokinetics in rats; format: in vivo
Procedure: The protocol for the pharmacokinetics studies in rat is provided below.
All animals were fasted overnight (12 hours) before dosing and continued till 4.0 hours after administration of test item. Test item formulations were prepared in 1% Tween 80 and 99% media (0.5% Methyl cellulose, 4000 cPs, pH 2.2). The blood samples (150 μl from each animal) were collected from the orbital sinus, and placed into a micro centrifuge tube containing disodium EDTA as an anticoagulant. Blood samples were centrifuged immediately with a speed of 1000 g for 10 min at 4° C. and separated plasma samples were frozen at below −80° C. and stored until analysis. The concentrations of test item in all formulation were analyzed by HPLC. The plasma concentrations of test item in all samples were analyzed by LC-MS/MS. Pharmacokinetic parameters viz. Cmax, AUC0-t, Tmax, and t1/2 were estimated by using WinNonlin software.

[9] = Oral pharmacokinetics in dogs; format: in vivo

| SMILES | Metabolic stability in liver microsomes, Mouse (percent parent compound remaining) [1] | Metabolic stability in liver microsomes, Rat (percent parent compound remaining) [2] | Metabolic stability in liver microsomes, Human (percent parent compound remaining) [3] | IC50 ([4]; μM) | inhibition at 1 µM [5] | inhibition at 1 µM [6] | inhibition at 1 µM [7] | IC50 [4] | Cmax relative to free base of compound B1 [8] | area under the curve (AUC) relative to free base of compound B1 [8] | Cmax relative to free base of compound B1 [9] | area under the curve (AUC) relative to free base of compound B1 [9] |
| --- | --- | --- | --- | --- | --- | --- | --- | --- | --- | --- | --- | --- |
| CC(C)Oc1ccc(-c2nn([C@H](C)c3oc4ccccc4c(=O)c3-c3cccc(F)c3)c3ncnc(N)c23)cc1F [Compound A2, (R)-2-(1-(4-amino-3-(3-fluoro-4-isopropoxyphenyl)-1H-pyrazolo[3,4-d]pyrimidin-1-yl)ethyl)-3-(3-fluorophenyl)-4H-chromen-4-one] | 34.7% | 44.2% | 11.4% | > 10 µM | 0.95% | 38.7% | 66.3% | – | – | – | – | – |
| CC(C)Oc1ccc(-c2nn(C(C)c3oc4ccccc4c(=O)c3-c3cccc(F)c3)c3ncnc(N)c23)cc1F (racemic) [Compound A, 2-(1-(4-amino-3-(3-fluoro-4-isopropoxyphenyl)-1H-pyrazolo[3,4-d]pyrimidin-1-yl)ethyl)-3-(3-fluorophenyl)-4H-chromen-4-one] | 32.6% | 43.1% | 38.4% | – | 2.63% | 9.95% | 55.9% | 0.0373 µM | – | – | – | – |
| CC(C)Oc1ccc(-c2nn([C@@H](C)c3oc4ccc(F)cc4c(=O)c3-c3cccc(F)c3)c3ncnc(N)c23)cc1F.Cc1ccc(S(=O)(=O)O)cc1 [PTSA salt of compound B1, (S)-2-(1-(4-amino-3-(3-fluoro-4-isopropoxyphenyl)-1H-pyrazolo[3,4-d]pyrimidin-1-yl)ethyl)-6-fluoro-3-(3-fluorophenyl)-4H-chromen-4-one 4-methylbenzenesulfonate] | – | – | – | – | – | – | – | – | about twice | nearly three times | more than twice | about four times |
| CC(C)Oc1ccc(-c2nn([C@H](C)c3oc4ccc(F)cc4c(=O)c3-c3cccc(F)c3)c3ncnc(N)c23)cc1F [Compound B2, (R)-2-(1-(4-amino-3-(3-fluoro-4-isopropoxyphenyl)-1H-pyrazolo[3,4-d]pyrimidin-1-yl)ethyl)-6-fluoro-3-(3-fluorophenyl)-4H-chromen-4-one] | 54.1% | 48.6% | 27.5% | – | – | – | – | – | – | – | – | – |
| CC(C)Oc1ccc(-c2nn(C(C)c3oc4ccc(F)cc4c(=O)c3-c3cccc(F)c3)c3ncnc(N)c23)cc1F (racemic) [Compound B, 2-(1-(4-amino-3-(3-fluoro-4-isopropoxyphenyl)-1H-pyrazolo[3,4-d]pyrimidin-1-yl)ethyl)-6-fluoro-3-(3-fluorophenyl)-4H-chromen-4-one] | 54.9% | 51.4% | 46.9% | – | – | – | – | – | – | – | – | – |
